Patent US20240107999A1, “ANTIBACTERIAL COMPOSITION” (LG CHEM, LTD., priority 2021, published 2024)

Tests used:
[1] = test system: P. mirabilis (ATCC29906); assay: Antibacterial strength (bacteriostatic reduction rate) by Methods 1 to 4, broth culture absorbance at 600 nm; type: cell-based; details: Proteus mirabilis, 16 hours, 35° C.; for inhibition of growth at 200 µg/mL: amount of antibacterial composition added 0.005 g in 25 ml broth, 3,000 CFU/ml, read-out: Antibacterial strength (%) Method 2; for inhibition of growth at 400 µg/mL: amount of antibacterial composition added 0.01 g in 25 ml broth, 3,000 CFU/ml, read-out: Antibacterial strength (%) Method 4; for inhibition of growth at 600 µg/mL: amount of antibacterial composition added 0.015 g in 25 ml broth, 3,000 CFU/ml, read-out: Antibacterial strength (%) Method 1; for inhibition of growth at 800 µg/mL: amount of antibacterial composition added 0.02 g in 25 ml broth, 3,000 CFU/ml, read-out: Antibacterial strength (%) Method 3
Procedure: (§1) After 25 ml of a broth-type medium (Nutrient broth, BD DIFCO., 8 g/L) inoculated with 3,000 CFU/ml bacteria is put into a 50 mL conical tube, 0.015 g of the antibacterial composition is added thereto and suspended (by vortexing), a sufficiently mixed solution is incubated for 16 hours in a shaking water bath maintained at 35° C.
(§2) After the incubated solution was diluted to ⅕ using a 1×PBS buffer solution, absorbance (λ=600 nm) was measured using a UV/Vis spectrophotometer, and the antibacterial strength, which is a bacteriostatic reduction rate, is calculated by the following equation by comparing the measured absorbance with a solution incubated without the addition of the antibacterial composition.
(§3) Antibacterial strength(%)=(1−Asample/AReference)×100 • Asample=Absorbance of medium solution incubated by adding antibacterial composition • AReference=Absorbance of medium solution incubated without addition of antibacterial composition
(§4) This method is the same as Method 1, except that 0.005 g of the antibacterial composition is added instead of 0.015 g of the antibacterial composition.
(§5) This method is the same as Method 1, except that 0.02 g of the antibacterial composition is added instead of 0.015 g of the antibacterial composition.
(§6) This method is the same as Method 1, except that 0.01 g of the antibacterial composition is added instead of 0.015 g of the antibacterial composition.
The antibacterial strength of Monomers 1 to 10 and Comparative Monomers 1 and 2 by Methods 1 to 4 was measured, and is shown in the following Table 1. In this case, the P. mirabilis (ATCC29906) bacteria were used.

[2] = Acute oral toxicity dose LD50 by 3T3 Neutral Red Uptake (NRU) assay (OECD Guidance Document No 129); type: cell-based; details: mouse, 3T3 cells, po, calculated from 3T3 NRU assay
Procedure: (§7) The acute oral toxicity dose LD50 and acute percutaneous toxicity dose LD50 were measured by 3T3 Neutral Red Uptake (NRU) assay (OECD Guidance Document No 129). Specifically, the acute oral toxicity dose LD50 and acute percutaneous toxicity dose LD50 can be calculated by the following method: […]

[3] = test system: P. mirabilis (ATCC29906); assay: Time at which 99.9% of the antibacterial strength is confirmed (Methods 1 to 4); type: cell-based, Proteus mirabilis; details: for Time at which 99.9% of the antibacterial strength is confirmed, Method 2: amount of antibacterial composition added 0.005 g; for Time at which 99.9% of the antibacterial strength is confirmed, Method 4: amount of antibacterial composition added 0.01 g; for Time at which 99.9% of the antibacterial strength is confirmed, Method 1: amount of antibacterial composition added 0.015 g; for Time at which 99.9% of the antibacterial strength is confirmed, Method 3: amount of antibacterial composition added 0.02 g
Procedure: as §1, §2, §3, §4, §5, §6
The time at which 99.9% of the antibacterial strength of Monomers 1 to 10 and Comparative Monomers 1 and 2 is confirmed is shown in the following Table 2.

[4] = Acute percutaneous toxicity dose LD50 by 3T3 Neutral Red Uptake (NRU) assay (OECD Guidance Document No 129); type: cell-based; details: mouse, 3T3 cells, other: percutaneous, calculated from 3T3 NRU assay
Procedure: as §7

[5] = test system: 3T3; assay: Acute oral toxicity dose LD50 by 3T3 Neutral Red Uptake (NRU) assay (OECD Guidance Document No 129); type: cell-based; details: calculated from 3T3 NRU assay
Procedure: as §7

C=CC(=O)OCC[N+](CCCC)(CCCC)CCCCCC [Comparative Monomer 1, reference compound]
inhibition of growth at 200 µg/mL [1]: 22.6%
inhibition of growth at 400 µg/mL [1]: 30.7%
inhibition of growth at 600 µg/mL [1]: 38.8%
inhibition of growth at 800 µg/mL [1]: 46.9%
LD50 [2]: 2360 mg/kg

C=CC(=O)OCC[N+](CCCCCCCCCCCCCC)(CCCCCCCCCCCCCC)CCCCCCCCCCCCCC [Comparative Monomer 2, reference compound]
Time at which 99.9% of the antibacterial strength is confirmed, Method 2 [3]: Within 1 hour
Time at which 99.9% of the antibacterial strength is confirmed, Method 4 [3]: Within 1 hour
Time at which 99.9% of the antibacterial strength is confirmed, Method 1 [3]: Within 1 hour
Time at which 99.9% of the antibacterial strength is confirmed, Method 3 [3]: Within 1 hour
inhibition of growth at 200 µg/mL [1]: 99.9%
inhibition of growth at 400 µg/mL [1]: 99.9%
inhibition of growth at 600 µg/mL [1]: 99.9%
inhibition of growth at 800 µg/mL [1]: 99.9%
LD50 [2]: 231 mg/kg

C=CC(=O)OCC[N+](CCCC)(CCCC)CCCCCCCC [Monomer 1]
LD50 [4]: ≥ 2000 mg/kg
Time at which 99.9% of the antibacterial strength is confirmed, Method 1 [3]: Within 1 hour
Time at which 99.9% of the antibacterial strength is confirmed, Method 3 [3]: Within 1 hour
inhibition of growth at 200 µg/mL [1]: 59.3%
inhibition of growth at 400 µg/mL [1]: 68.2%
inhibition of growth at 600 µg/mL [1]: 99.9%
inhibition of growth at 800 µg/mL [1]: 99.9%
LD50 [2]: ≥ 1000 mg/kg
Acute oral toxicity dose (mg/Kg) LD50 [5]: 1,708 mg/Kg

C=CC(=O)OCC[N+](CCCC)(CCCC)CCCCCCCCCC [Monomer 2]
LD50 [4]: ≥ 2000 mg/kg
Time at which 99.9% of the antibacterial strength is confirmed, Method 2 [3]: Within 1 hour
Time at which 99.9% of the antibacterial strength is confirmed, Method 4 [3]: Within 1 hour
Time at which 99.9% of the antibacterial strength is confirmed, Method 1 [3]: Within 1 hour
Time at which 99.9% of the antibacterial strength is confirmed, Method 3 [3]: Within 1 hour
inhibition of growth at 200 µg/mL [1]: 99.9%
inhibition of growth at 400 µg/mL [1]: 99.9%
inhibition of growth at 600 µg/mL [1]: 99.9%
inhibition of growth at 800 µg/mL [1]: 99.9%
LD50 [2]: ≥ 1000 mg/kg
Acute oral toxicity dose (mg/Kg) LD50 [5]: 1,369 mg/Kg

C=CC(=O)OCC[N+](CCCC)(CCCC)CCCCCCCCCCCC [Monomer 3]
LD50 [4]: ≥ 2000 mg/kg
Time at which 99.9% of the antibacterial strength is confirmed, Method 2 [3]: Within 1 hour
Time at which 99.9% of the antibacterial strength is confirmed, Method 4 [3]: Within 1 hour
Time at which 99.9% of the antibacterial strength is confirmed, Method 1 [3]: Within 1 hour
Time at which 99.9% of the antibacterial strength is confirmed, Method 3 [3]: Within 1 hour
inhibition of growth at 200 µg/mL [1]: 99.9%
inhibition of growth at 400 µg/mL [1]: 99.9%
inhibition of growth at 600 µg/mL [1]: 99.9%
LD50 [2]: 843 mg/kg

C=CC(=O)OCC[N+](CCCCCCCC)(CCCCCCCC)CCCCCCCC [Monomer 4]
LD50 [4]: ≥ 2000 mg/kg
Time at which 99.9% of the antibacterial strength is confirmed, Method 2 [3]: Within 1 hour
Time at which 99.9% of the antibacterial strength is confirmed, Method 4 [3]: Within 1 hour
Time at which 99.9% of the antibacterial strength is confirmed, Method 1 [3]: Within 1 hour
Time at which 99.9% of the antibacterial strength is confirmed, Method 3 [3]: Within 1 hour
inhibition of growth at 200 µg/mL [1]: 99.9%
inhibition of growth at 400 µg/mL [1]: 99.9%
inhibition of growth at 600 µg/mL [1]: 99.9%
inhibition of growth at 800 µg/mL [1]: 99.9%
LD50 [2]: ≥ 1000 mg/kg
Acute oral toxicity dose (mg/Kg) LD50 [5]: 1,442 mg/Kg

C=C(C)C(=O)OCC[N+](CCCCCC)(CCCCCC)CCCCCCCCCC [Monomer 5]
LD50 [4]: ≥ 2000 mg/kg
Time at which 99.9% of the antibacterial strength is confirmed, Method 2 [3]: Within 1 hour
Time at which 99.9% of the antibacterial strength is confirmed, Method 4 [3]: Within 1 hour
Time at which 99.9% of the antibacterial strength is confirmed, Method 1 [3]: Within 1 hour
Time at which 99.9% of the antibacterial strength is confirmed, Method 3 [3]: Within 1 hour
inhibition of growth at 200 µg/mL [1]: 99.9%
inhibition of growth at 400 µg/mL [1]: 99.9%
inhibition of growth at 600 µg/mL [1]: 99.9%
inhibition of growth at 800 µg/mL [1]: 99.9%
LD50 [2]: ≥ 1000 mg/kg
Acute oral toxicity dose (mg/Kg) LD50 [5]: 1,078 mg/Kg

C=C(C)C(=O)OCC[N+](CCCC)(CCCCCC)CCCCCCCCCC (centres unmarked) [Monomer 6]
LD50 [4]: ≥ 2000 mg/kg
Time at which 99.9% of the antibacterial strength is confirmed, Method 2 [3]: Within 1 hour
Time at which 99.9% of the antibacterial strength is confirmed, Method 4 [3]: Within 1 hour
Time at which 99.9% of the antibacterial strength is confirmed, Method 1 [3]: Within 1 hour
Time at which 99.9% of the antibacterial strength is confirmed, Method 3 [3]: Within 1 hour
inhibition of growth at 200 µg/mL [1]: 99.9%
inhibition of growth at 400 µg/mL [1]: 99.9%
inhibition of growth at 600 µg/mL [1]: 99.9%
inhibition of growth at 800 µg/mL [1]: 99.9%
LD50 [2]: ≥ 1000 mg/kg
Acute oral toxicity dose (mg/Kg) LD50 [5]: 1,111 mg/Kg

C=C(C)C(=O)OCC[N+](CCCC)(CCCCCCCC)CCCCCCCCCC (centres unmarked) [Monomer 7]
LD50 [4]: ≥ 2000 mg/kg
Time at which 99.9% of the antibacterial strength is confirmed, Method 2 [3]: Within 1 hour
Time at which 99.9% of the antibacterial strength is confirmed, Method 4 [3]: Within 1 hour
Time at which 99.9% of the antibacterial strength is confirmed, Method 1 [3]: Within 1 hour
Time at which 99.9% of the antibacterial strength is confirmed, Method 3 [3]: Within 1 hour
inhibition of growth at 200 µg/mL [1]: 99.9%
inhibition of growth at 400 µg/mL [1]: 99.9%
inhibition of growth at 600 µg/mL [1]: 99.9%
inhibition of growth at 800 µg/mL [1]: 99.9%
LD50 [2]: 998 mg/kg

C=C(C)C(=O)OCC[N+](CCCC)(CCCCCCCCCC)CCCCCCCCCC [Monomer 8]
LD50 [4]: ≥ 2000 mg/kg
Time at which 99.9% of the antibacterial strength is confirmed, Method 2 [3]: Within 1 hour
Time at which 99.9% of the antibacterial strength is confirmed, Method 4 [3]: Within 1 hour
Time at which 99.9% of the antibacterial strength is confirmed, Method 1 [3]: Within 1 hour
Time at which 99.9% of the antibacterial strength is confirmed, Method 3 [3]: Within 1 hour
inhibition of growth at 200 µg/mL [1]: 99.9%
inhibition of growth at 400 µg/mL [1]: 99.9%
inhibition of growth at 600 µg/mL [1]: 99.9%
inhibition of growth at 800 µg/mL [1]: 99.9%
LD50 [2]: 869 mg/kg

C=CC(=O)OCCCC[N+](CCCC)(CCCC)CCCCCCCC [Monomer 9]
LD50 [4]: ≥ 2000 mg/kg
Time at which 99.9% of the antibacterial strength is confirmed, Method 1 [3]: Within 1 hour
Time at which 99.9% of the antibacterial strength is confirmed, Method 3 [3]: Within 1 hour
inhibition of growth at 200 µg/mL [1]: 61.2%
inhibition of growth at 400 µg/mL [1]: 70%
inhibition of growth at 600 µg/mL [1]: 99.9%
inhibition of growth at 800 µg/mL [1]: 99.9%
LD50 [2]: ≥ 1000 mg/kg
Acute oral toxicity dose (mg/Kg) LD50 [5]: 1,498 mg/Kg

C=CC(=O)OCCCC[N+](CCCCCCCC)(CCCCCCCC)CCCCCCCC [Monomer 10]
LD50 [4]: ≥ 2000 mg/kg
Time at which 99.9% of the antibacterial strength is confirmed, Method 2 [3]: Within 1 hour
Time at which 99.9% of the antibacterial strength is confirmed, Method 4 [3]: Within 1 hour
Time at which 99.9% of the antibacterial strength is confirmed, Method 1 [3]: Within 1 hour
Time at which 99.9% of the antibacterial strength is confirmed, Method 3 [3]: Within 1 hour
inhibition of growth at 200 µg/mL [1]: 99.9%
inhibition of growth at 400 µg/mL [1]: 99.9%
inhibition of growth at 600 µg/mL [1]: 99.9%
inhibition of growth at 800 µg/mL [1]: 99.9%
LD50 [2]: ≥ 1000 mg/kg
Acute oral toxicity dose (mg/Kg) LD50 [5]: 1,242 mg/Kg
